Several values for one entry are separate records, joined by “and”; a condition that tells them apart may be missing. Equal entries are not always repeated. Where two headings read alike, the source gives them in different places. Marks after values point to notes of the source that are not given here.

The results in this text go back to US9089576B2, “Medicament comprising a peptide extract of avocado, which is intended for the treatment and prevention of illnesses that are linked to an immune system deficiency or oxidative stress or skin ageing or dry skin” (LABORATOIRES EXPANSCIENCE, priority 2004, dated 2015).

Assay [1] concerns Jurkat cell line (human lymphoid cells). Briefly: Anti-radical activity: intracellular lipid peroxides after H2O2 (C11-fluorine probe, flow cytometry). Format: cell-based. The note with it: 100 μM BHA; 10 μM H2O2, 30 minutes. (Flow cytometry measures light scatter and fluorescence of single cells or particles in a stream.)
Procedure: The relative lipid peroxide content inside the cells was measured in the basal state and following hydrogen peroxide treatment (H2O2, radical species production stimulation).
This measurement was made using a specific fluorescent probe selected and quantified by means of flow cytometry. This technique offers the advantage of very high specificity by measuring the fluorescence of individual cells, on a large number of cells (10,000 cells analysed per sample).
The cells were prepared in phenol red-free DMEM medium [Merck] with 1.87 mg/ml sodium bicarbonate [Invitrogen] according to the following conditions: • cells treated with H2O2 with the C11-fluorine probe (to quantify lipid peroxides); • cells not treated with H2O2 with C11-fluorine probe.
The probe was incorporated in the cells and the cells were then washed and incubated in the presence or not (standard) of 0.05%, 0.1%, 0.2% and 1% DM avocado peptides or 100 μM BHA (Butylated hydroxyanisole) [Sigma] […]
In the presence of hydrogen peroxide, the C11-fluorine probe integrated in the membranes is oxidised and its fluorescence decreases. Therefore, a decrease in the fluorescence signal conveys an increase in the membrane lipid peroxide content (and conversely).
The between-group comparisons were conducted using the Student's test and the protection percentage (P) was calculated as follows:
In assay [2] the test system is oxidised proteins. Description: Oxidised proteins content in replication-aged fibroblast model (INCell Analyzer analysis). Format: cell-based, human. The note with it: P16 fibroblasts; 150 μM BHA; 72 hours. The protocol: The study was conducted on normal human dermal fibroblasts at passage 8 (P8, control conditions) and brought to senescence using two separate methods: • accelerated ageing by means of successive replications: fibroblasts at passage 16 (P16), • accelerated ageing by means of H2O2.
The fibroblasts were cultured in DMEM medium [Invitrogen] supplemented with 2 mM L-glutamine [Invitrogen] and 10% Fetal Calf Serum [FCS, Invitrogen].
After incubation, the cells were rinsed and fixed with methanol. The fluorescein-5-thiosemicarbazide probe (20 μM) [Invitrogen] was added for 30 minutes at ambient temperature and, in parallel, the cell nuclei were stained with Hoechst [Sigma]. The image acquisition was performed using the INCell Analyzer™ 1000 unit [GE Healthcare], with the ×20 lens.

For assay [3], the system named is Glycosaminoglycan (GAG) synthesis. Description: GAG synthesis by keratinocytes (35S-sulphate incorporation). In kind it is cell-based, human. To be noted: 72 hours. The protocol: (§1) Normal human epidermal keratinocytes (NHEK) were pre-cultured for 24 hours at 37° C., 5% CO2 in calcium-depleted (0.09 mM) SFM medium [Invitrogen] supplemented with 0.25 ng/ml EGF [Invitrogen], 25 μg/ml pituitary extract [Invitrogen] and 25 μg/ml gentamycin [Sigma].
(§2) Two identical runs were prepared to assay, on one hand, hyaluronic acid release/production and, on the other, […] incorporation in the GAG fraction. The group corresponding to the GAG assay was supplemented with ^35S-sulphate [Amersham] after 48 hours of culture (labelling for the last 24 hours).
At the end of the treatment, in the group corresponding to the GAG assay, the incorporated radioactivity was counted and thus the variation in GAG synthesis with respect to the analysed control.
(§3) The between-group comparisons were conducted by means of an analysis of variance using the Dunnett multiple comparison test.

Assay [4] concerns Rat peritoneal mast cells. Briefly: Tryptase release by mast cells stimulated with calcium ionophore A23187. To be noted: Ca ionophore + 50 μM Quercetin. Format: cell-based. On the procedure:
(reference tryptase release inhibitory molecule).
The cells were then stimulated for 15 minutes by 0.5 μM calcium ionophore A23187 [Millipore] to induce the release of tryptase.
The reaction was stopped by means of centrifugation at 4° C. The tryptase was assayed in the pellets and in the supernatants by means of a commercial kit [Millipore] based on the spectrophotometric detection of the chromophore p-nitroaniline (pNA) after cleavage of the substrate tosyl-gly-pro-lys-pNA by tryptase.

In assay [5] the test system is Desmosglein 1. Briefly: DNA array gene expression, Skinethic reconstructed epidermises: Desmosglein 1. In kind it is cell-based. To be noted: 1 μM retinoic acid.
Assay [6] has as its system NICE-1 protein. Briefly: DNA array gene expression, Skinethic reconstructed epidermises: NICE-1. The note with it: 1 μM retinoic acid. In kind it is cell-based.
Assay [7] deals with S100 A7. Description: DNA array gene expression, Skinethic reconstructed epidermises: S100 A7. Format: cell-based. To be noted: 1 μM retinoic acid.
Assay [8] concerns S100 A8. Description: DNA array gene expression, Skinethic reconstructed epidermises: S100 A8. Format: cell-based. The note with it: 1 μM retinoic acid.
Assay [9] has as its system S100 A9. Description: DNA array gene expression, Skinethic reconstructed epidermises: S100 A9. Format: cell-based. The note with it: 1 μM retinoic acid.
Assay [10] deals with SPRL6A (epidermal differentiation complex protein like protein). Briefly: DNA array gene expression, Skinethic reconstructed epidermises: SPRL6A. Format: cell-based. The note with it: 1 μM retinoic acid.
In assay [11] the test system is Elafin. Briefly: DNA array gene expression, Skinethic reconstructed epidermises: Elafin. The note with it: 1 μM retinoic acid. In kind it is cell-based.
Assay [12] relates to Lysyl oxidase like 2 (LOXL2). Description: DNA array gene expression, Skinethic reconstructed epidermises: LOXL2. In kind it is cell-based. To be noted: 1 μM retinoic acid.
In assay [13] the test system is Heme oxygenase 1. Briefly: DNA array gene expression, Skinethic reconstructed epidermises: Heme oxygenase 1. In kind it is cell-based. The note with it: 1 μM retinoic acid.
In assay [14] the test system is Normal human epidermal keratinocytes (NHEK). Briefly: NHEK proliferation (neutral red incorporation). Format: cell-based. The note with it: 1 μM retinoic acid; 48 hours. On the procedure:
(§4) The cell proliferation was evaluated using a neutral red incorporation tests. This test is based on the ability of living cells to incorporate and fix neutral red, a supravital staining agent. Therefore, the staining activity intensity (optical density measurement of cell lysates) reflects the quantity of living cells.
(§5) Normal human epidermal keratinocytes (NHEK), supplied by Cambrex, were cultured in KGM2 culture medium [Cambrex]. Normal human dermal fibroblasts (NHDF), supplied by Cambrex, were cultured in RPMI 1640 medium with GlutaMAX I [Invitrogen] supplemented with 1% or 10% fetal calf serum [FCS, Invitrogen].
(§6) The cells were inoculated in 96-well plates in KGM2 medium for the NHEK and in RPMI medium with 1% FCS for the NHDF.
(§7) (positive reference) in KGM2 medium for the NHEK or in RPMI medium with 1% FCS for the NHDF.
(§8) At the end of treatment, the quantity of cells per well was evaluated by means of a neutral red incorporation test:
(§9) After 3 hours in contact with neutral red, the cells were rinsed and lysed and the optical density proportional to the quantity of living cells was read at 540 nm against the blank (well with no cells).

Assay [15] has as its system Normal human dermal fibroblasts (NHDF). Briefly: NHDF proliferation (neutral red incorporation). In kind it is cell-based. To be noted: 1 μM retinoic acid; 48 hours; RPMI 1% FCS. On the procedure: as §4, §5, §6, §7
An additional condition was conducted for the NHDF: treatment with complete medium (RPMI with 10% FCS: optimal conditions for NHDF proliferation).
as §8, §9

Assay [16] concerns hyaluronic acid. Description: Hyaluronic acid synthesis/release by keratinocytes (ELISA). Format: cell-based, human. The note with it: 0.1 μM retinoic acid, 72 hours. On the procedure:
as §1, §2
In the group corresponding to the hyaluronic acid assay, at the end of treatment, the culture supernatants were sampled and the hyaluronic acid assayed using a specific modified ELISA test [Biogenic].
as §3

Assay [17] concerns Thioredoxin. To be noted: 1 μM retinoic acid.
Procedure: The gene expression analysis conducted using standard simplified DNA arrays. These mini-chips were produced on a Nylon substrate, spotting specific cDNA of the markers of interest.
The analysis was conducted using proprietary optimised miniaturised technology, based on the use of messenger RNA and ^33P labelling:
At the end of each culture time, the epidermises were rinsed with a PBS solution. The total RNA in the epidermises was then extracted and purified using Tri-Reagent [Sigma] according to a standardised protocol. The quantity and quality of the RNA were then evaluated using an Agilent 2001 bioanalyser.
The mRNA from each culture was then reverse transcribed using oligodT and a deoxyribonucleotide triphosphate labelled with ^33P. Multiple cDNA ‘target’ labelled sequences were produced for each culture. These targets were then hybridised, under optimised conditions, with the excess ‘probe’ cDNA fixed on the membranes. After washing, the relative quantity of labelled target was detected by means of direct counting on PhosphorImager.
The membrane analysis was conducted using ImageQuant TL software [Image Analysis, Amersham Biosciences].
Assay [18] has as its system hBD-2. Description: Induction of hBD-2 in normal human keratinocytes (ELISA). Format: cell-based. The note with it: IL-1β 100 ng/ml, 24 hours. On the procedure: Normal human keratinocytes are seeded in 96 well plates (about 20,000 cells/well), in the presence of a specific medium which is enriched in calcium (final concentration 1.3 mM), as formerly described in the publication “Human β-Defensin-2 production in Keratinocytes is regulated by Interleukin-1, Bacteria, and the State of Differentiation”, Alice Y. Liu et al., The Society for Investigative Dermatology, vol. 118, No 2, February 2002, pages 275-281.
After 24 hours incubation, the induction of hBD-2 is assessed with an ELISA technique using a specific antibody (goat polyclonal to human BD2; Abcam; ab9871).

For assay [19], the system named is Collagen I. Description: Gene expression of Collagen I in fibroblasts (real-time RT-PCR). The note with it: 24 hours. Format: cell-based, human. The protocol:
(§10) The cells were then incubated at 37° C., 5% CO2 for 24 hours for the collagen I and elastin study or 48 hours for the LOX and LOXL study.
On the technique in general: In qPCR the cycle at which signal appears reflects the starting amount.

Assay [20] concerns Elastin. Description: Gene expression of Elastin in fibroblasts (real-time RT-PCR). Format: cell-based, human. To be noted: 24 hours. The protocol:
as §10

Assay [21] relates to MMP1. Description: Gene expression of MMP1 in PMA-stimulated fibroblasts (real-time RT-PCR). In kind it is cell-based, human. The note with it: 1 mg/ml TGF b1 pre-treatment 16 hours, then 10 nM PMA 2 hours. On the procedure:
After 16 hours of incubation, the fibroblasts were stimulated for 2 hours with 10 nM PMA (Phorbol Myristate Acetate) [Sigma] in RPMI medium without FCS.
For the study of the expression of MMP1, the inhibition percentage was calculated as follows: […]

As for `COc1ccc(O)c(C(C)(C)C)c1` [BHA, Butylated hydroxyanisole], in assay [1], the Protection % turned out to be 50% and the “Relative intracellular quantity of lipid peroxides, % of “oxidised cell” standard” value is on record as 89** %. Further, in [2], the “Oxidised proteins (cytoplasmic fluorescence intensity/number of cells)” value is 105 314* and the “Oxidised proteins, % vs “senescent cells” (P16)” value was −57%.
With `[Ca+2]` [Calcium, calcium], in assay [3] (1.5 mM calcium), the “GAG synthesis, 35-5 sulphate incorporation (cpm)” value is listed as 17753 ± 876 cpm and the “GAG synthesis, % vs control cells” value was “+59%”.
Consider `O=c1c(O)c(-c2ccc(O)c(O)c2)oc2cc(O)cc(O)c12` [Quercetin], for which, in assay [4], the “Tryptase” value was determined as 44 ± 2 mg/mL and the “tryptase release, Inhibition (% vs stimulated cells)” value was −47%.
Turning to `CC1=C(/C=C/C(C)=C/C=C/C(C)=C/C(=O)O)C(C)(C)CCC1` [retinoic acid], the “% variation with respect to reference: Desmosglein 1” value in assay [5] (6 hours) was −40%; in [5] (24 hours) it was −95%. The “% variation with respect to reference: NICE-1 protein” value in assay [6] (6 hours) is −3%; in assay [6] (24 hours), “+217%”. Besides, the “% variation with respect to reference: S100 A7” value in [7] (6 hours) is “+118%”; in assay [7] (24 hours) it was “+3240%”. Further, the entries for the “% variation with respect to reference: S100 A8” value in [8] (6 hours) and in [8] (24 hours) were “+34%” and “+1347%”, respectively. Also, the “% variation with respect to reference: S100 A9” value in assay [9] (6 hours) is recorded as “+83%”; in assay [9] (24 hours) it was “+552%”. For the same compound, the entries for the “% variation with respect to reference: SPRL6A” value in assay [10] (6 hours) and in assay [10] (24 hours) were −41% and “+202%”, respectively. The “% variation with respect to reference: Elafin” value in assay [11] (6 hours) is listed as “+13%”; in assay [11] (24 hours), −22%. For the same compound, the “% variation with respect to reference: Lysyl oxidase like 2 (LOXL2)” value in assay [12] (6 hours) and in [12] (24 hours) was −16% throughout. In addition, the “% variation with respect to reference: Heme oxygenase 1” value in assay [13] (6 hours) is recorded as −17%; in assay [13] (24 hours), “+108%”. In addition, in assay [14], the “NHEK proliferation, % vs control cells” value was “+36%”. Besides, the “NHEK proliferation, Neutral Red (OD 540)” value in [14] stood at 0.6981 ± 0.1627 OD 540. Further, the “NHDF proliferation, % vs control cells” value in [15] is recorded as “+20%”. In assay [15], the “NHDF proliferation, Neutral Red (OD 540)” value is 0.1923 ± 0.00765 OD 540. Besides, in assay [3] (0.1 μM retinoic acid), the “GAG synthesis, 35-5 sulphate incorporation (cpm)” value was 13217 ± 421 cpm. In addition, the “Hyaluronic acid synthesis/release, % vs control cells” value in assay [16] is given as “+146%”. Besides, in assay [16] (culture supernatant), the Hyaluronic acid synthesis/release, HA worked out at 11500 ± 457 ng/mL. For the same compound, the entries for the “% variation with respect to reference: Thioredoxin” value in assay [17] (6 hours) and in assay [17] (24 hours) were −26% and “+126%”, respectively.
Turning to “IL-1β: interleukin-1β, positive induction checking for hBD-2”, the “hBD-2 (OD), Average” value in assay [18] turned out to be 0.106 OD. In addition, the “hBD-2 (OD)” value in assay [18] (single replicates) was 0.103 OD and 0.11 OD and 0.105 OD.
On to “TGF b1: TGFβ1 [R&D Systems], positive control / reference”, for which the “Gene expression of Collagen I, Relative quantity standardised with HPRT” value in assay [19] (5 mg/ml TGF b1) was 1.74*. For the same compound, the “increase in gene expression of type I collagen” value in [19] (TGFβ1 positive control) amounted to 74%. Besides, the “Gene expression of Elastin, Relative quantity standardised with HPRT” value in [20] (5 mg/ml TGF b1) is recorded as 1.59. In addition, the “increase in gene expression of elastin” value in assay [20] (TGFβ1 positive control) is given as 59%. In addition, in assay [21], the “Gene expression of MMP1, Inhibition (% vs stimulated cells)” value is reported as −66 $$ % and the “Gene expression of MMP1, Relative quantity standardised with YWHA2” value was found to be 0.61. Also, the “Gene expression of MMP1, Inhibition (% vs stimulated cells)” value in assay [21] (listed as TGFβ1) is listed as −66%.
